Test results from patent US20230167118A1, “DEGRADATION OF BRUTON'S TYROSINE KINASE (BTK) BY CONJUGATION OF BTK INIDBITORS WITH E3 LIGASE LIGAND AND METHODS OF USE” (BEIGENE, LTD., priority 2020, published 2023).

What was measured:
BTK = molecular target: T1, BTK (Homo sapiens, UniProt Q06187); assay: Cell Degradation: BTK degradation in TMD-8 cells, HTRF assay; assay type: cell-based; conditions: 6 h treatment, IC50 (DC50) of BTK degradation
T1 construct: High control=Cell group with added DMSO and without compound, indicating microplate readings without BTK degradation; endogenous in cells; host or cells: TMD-8 cells
Procedure, shortened: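 BTK levels read by HTRF (665 vs 620 nm) in lysates of TMD-8 cells after 6 h compound exposure (eight doses, 6-fold steps, 0.2% DMSO). Percent degradation relative to controls; four-parameter curve fitting gave DC50, with Dmax the top degradation.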

HEK-293 cells = assay: HEK-293 Cytotoxicity Assay (CellTiter-Glo); assay type: cell-based; conditions: Homo sapiens, HEK293, 72 h incubation, CellTiter-Glo luminescence
Procedure, shortened: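 Four-parameter fit of % inhibition gives IC50, from CellTiter-Glo luminescent viability read-out. Cells exposed for 72 h to an 8-point, 4-fold series at 0.2% DMSO.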

T1 sequence (Q06187 whole entry): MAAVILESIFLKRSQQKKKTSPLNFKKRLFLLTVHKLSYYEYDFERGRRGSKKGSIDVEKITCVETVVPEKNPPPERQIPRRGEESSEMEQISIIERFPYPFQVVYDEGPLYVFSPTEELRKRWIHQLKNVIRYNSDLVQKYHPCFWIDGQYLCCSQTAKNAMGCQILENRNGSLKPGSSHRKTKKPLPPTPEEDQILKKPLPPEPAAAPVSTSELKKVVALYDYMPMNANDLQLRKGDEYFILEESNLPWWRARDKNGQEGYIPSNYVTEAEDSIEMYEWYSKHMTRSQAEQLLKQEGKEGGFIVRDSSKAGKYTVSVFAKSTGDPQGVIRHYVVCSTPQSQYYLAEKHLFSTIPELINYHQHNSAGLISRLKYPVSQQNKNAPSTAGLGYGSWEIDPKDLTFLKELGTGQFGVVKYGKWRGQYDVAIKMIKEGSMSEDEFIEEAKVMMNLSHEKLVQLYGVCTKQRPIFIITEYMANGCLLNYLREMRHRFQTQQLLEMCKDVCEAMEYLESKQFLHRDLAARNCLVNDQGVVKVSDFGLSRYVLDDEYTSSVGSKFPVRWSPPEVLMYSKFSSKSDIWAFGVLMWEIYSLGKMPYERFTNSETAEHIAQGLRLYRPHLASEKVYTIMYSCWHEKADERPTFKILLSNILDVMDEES

Row | DC50 (BTK) | SMILES | IC50 (HEK-293 cells)
1 | 2.7 nM | Cc1cc(-c2ncnc3[nH]c(-c4ccc(N5CCN(CC6CCN(c7ccc(N8CC(=O)NC8=O)cc7)CC6)CC5)cn4)cc23)ccc1[C@@H](C)NC(=O)c1nc(C(C)(C)C)no1 [Example 184, (R)-3-(tert-butyl)-N-(1-(4-(6-(5-(4-((1-(4-(2,4-dioxoimidazolidin-1-yl)phenyl)piperidin-4-yl)methyl)piperazin-1-yl)pyridin-2-yl)-7H-pyrrolo[2,3-d]pyrimidin-4-yl)-2-methylphenyl)ethyl)-1,2,4-oxadiazole-5-carboxamide] | > 10000 nM
2 | 0.5 nM | Cc1cc(-c2ncnc3[nH]c(-c4ccc(N5CCN(CC6CCN(c7ccc(N8CCC(=O)NC8=O)cc7)CC6)CC5)cn4)cc23)ccc1[C@@H](C)NC(=O)c1nnc(C(C)(C)C)o1 [Example 185, (R)-5-(tert-butyl)-N-(1-(4-(6-(5-(4-((1-(4-(2,4-dioxotetrahydropyrimidin-1(2H)-yl)phenyl)piperidin-4-yl)methyl)piperazin-1-yl)pyridin-2-yl)-7H-pyrrolo[2,3-d]pyrimidin-4-yl)-2-methylphenyl)ethyl)-1,3,4-oxadiazole-2-carboxamide] | > 10000 nM
3 | 1.04 nM | Cc1cc(-c2ncnc3[nH]c(-c4ncc(N5CCN(CC6CCN(c7ccc(N8CCC(=O)NC8=O)cc7)CC6)CC5)s4)cc23)ccc1[C@@H](C)NC(=O)c1nc(C(C)(C)C)no1 [Example 186, (R)-3-(tert-butyl)-N-(1-(4-(6-(5-(4-((1-(4-(2,4-dioxotetrahydropyrimidin-1(2H)-yl)phenyl)piperidin-4-yl)methyl)piperazin-1-yl)thiazol-2-yl)-7H-pyrrolo[2,3-d]pyrimidin-4-yl)-2-methylphenyl)ethyl)-1,2,4-oxadiazole-5-carboxamide] | > 10000 nM
4 | 2.65 nM | Cc1cc(-c2ncnc3[nH]c(-c4ccc(N5CCN(CC6CCN(c7ccc(-n8ccc(=O)[nH]c8=O)cc7)CC6)CC5)nc4)cc23)ccc1[C@@H](C)NC(=O)c1nc(C(C)(C)C)no1 [Example 187, (R)-3-(tert-butyl)-N-(1-(4-(6-(6-(4-((1-(4-(2,4-dioxo-3,4-dihydropyrimidin-1(2H)-yl)phenyl)piperidin-4-yl)methyl)piperazin-1-yl)pyridin-3-yl)-7H-pyrrolo[2,3-d]pyrimidin-4-yl)-2-methylphenyl)ethyl)-1,2,4-oxadiazole-5-carboxamide] | > 10000 nM
5 | 3.03 nM | Cc1cc(-c2ncnc3[nH]c(-c4ccc(N5CCN([C@H]6C[C@@H](c7ccc(N[C@H]8CCC(=O)NC8=O)cc7)C6)CC5)nc4)cc23)ccc1[C@@H](C)NC(=O)c1nc(C(C)(C)C)no1 [Example 188, 3-(tert-butyl)-N-((R)-1-(4-(6-(6-(4-((1R,3s)-3-(4-(((S)-2,6-dioxopiperidin-3-yl)amino)phenyl)cyclobutyl)piperazin-1-yl)pyridin-3-yl)-7H-pyrrolo[2,3-d]pyrimidin-4-yl)-2-methylphenyl)ethyl)-1,2,4-oxadiazole-5-carboxamide] | > 10000 nM

Row | SMILES | DC50 (BTK) | IC50 (HEK-293 cells)
6 | Cc1cc(-c2ncnc3[nH]c(-c4ccc(C5CC6CCC(C5)N6CC5CCN(c6ccc(N7CCC(=O)NC7=O)cc6)CC5)cc4)cc23)ccc1[C@@H](C)NC(=O)c1nc(C(C)(C)C)no1 (stereo partly drawn) [Example 183, 3-(tert-butyl)-N-((1R)-1-(4-(6-(4-(8-((1-(4-(2,4-dioxotetrahydropyrimidin-1(2H)-yl)phenyl)piperidin-4-yl)methyl)-8-azabicyclo[3.2.1]octan-3-yl)phenyl)-7H-pyrrolo[2,3-d]pyrimidin-4-yl)-2-methylphenyl)ethyl)-1,2,4-oxadiazole-5-carboxamide] | 1.4 nM | 1040 nM
